# Assay results taken from patent US20150079183A1, “Lercanidipine Hydrochloride and Losartan Potassium Compound Preparation and Preparation Method Thereof” (Zhaoke Pharmaceutical (Hefei) Company Limited, priority 2012, published 2015).
# Structures can show the parent of a compound that is named as a salt.
# Assays:
# [1] = test system: patients with light and moderate diastolic hypertension; assay: Clinical trial study of Example 6 (compound preparation 7.5 mg lercanidipine + 20 mg losartan vs single drugs); type: in vivo, human; conditions: for Diastolic blood pressure Value changed / Systolic blood pressure Value changed: before treatment vs end of week 12; for Diastolic blood pressure Before dosing / Systolic blood pressure Before dosing: before treatment, mean ± SD
# Excerpt: 1.1 Selection of cases: patients aged from 18-75 years old with light and moderate diastolic hypertension (supine diastolic blood pressure 95-115 mmHg), excluding severe hypertension (diastolic blood pressure >115 mmHg), secondary hypertension, heart disease, myocardial infarction, shock, transient ischemic stroke within the past 3 months, sinus bradycardia or sinus tachycardia, hypovolemia, liver and kidney dysfunction and diabetes. After 14-20 days of washing stage, entering 14-30 days of introduction stage, during which single blinded placebos were taken. Blood pressures were measured in a return visit in every 7-10 days. Suitable patients were divided into treatment groups according to random principle.
# 1.2 Trial method: there were totally 359 patients enrolled, and 305 patients entered the introduction stage and 266 entered the assessment stage.
# (§1) 1.3 Observation indicators and method: blood pressures were measured as per the requirements of international standard. A settled physician would follow up once a week and visited from 9:00 to 11:00. Every time heart rate and sitting blood pressure were measured 3 times and the 2 greater values were taken to calculate the mean value.
# (§2) 1.4 Laboratory examinations: electrocardiogram, blood and urine routine, liver and kidney function, blood sugar, blood lipid and blood electrolyte examinations were performed before and after overall patient trial.
# 1.5 Curative effect assessment: according to the regulations of The National Cardiovascular Epidemiology and Population Prevention report meeting summary in 1979: (1) markedly effective: diastolic blood pressure was decreased by ≧10 mmHg, and was decreased to normal (<90 mmHg) or decreased by more than 20 mmHg; (2) effective: diastolic blood pressure was decreased by 10-19 mmHg or was decreased by <10 mmHg, but reached normal; (3) failure: not reached above criteria.
# (§3) 1.6 Data processing and statistical method: the measurement data were calculated as mean±standard variation. Paired t-test was used to compare the quantitative indicators before and after the 4 treatment patterns. Chi-square test was used to compare the difference before and after administration.
# [2] = test system: patients with light and moderate diastolic hypertension; assay: Clinical trial study of Example 5 (compound preparation 5 mg lercanidipine + 20 mg losartan vs single drugs and amlodipine); type: in vivo, human; conditions: for Diastolic blood pressure Value changed / Systolic blood pressure Value changed: before treatment vs end of week 12; for Diastolic blood pressure Before dosing / Systolic blood pressure Before dosing: before treatment, mean ± SD; for Diastolic blood pressure After dosing / Systolic blood pressure After dosing: once daily
# Protocol: After 14-20 days of washing stage, entering 14-30 days of introduction stage, during which single blinded placebos were taken. Blood pressures were measured in a return visit in every 7-10 days. Suitable patients were divided into treatment groups according to random principle.
# as §1, with “method: blood,” for “method: blood”
# as §2, §3
cases occurring gastrointestinal tract symptoms ([1]; 12 weeks of treatment),cases occurring gastrointestinal tract symptoms ([2]; 12 weeks of treatment),Compound,Diastolic blood pressure Value changed [1],Systolic blood pressure Value changed [1],Diastolic blood pressure Before dosing [1],Systolic blood pressure Before dosing [1],Diastolic blood pressure After dosing ([1]; end of week 12 of treatment),Systolic blood pressure After dosing ([1]; end of week 12 of treatment),Diastolic blood pressure Value changed [2],Systolic blood pressure Value changed [2],Diastolic blood pressure Before dosing [2],Systolic blood pressure Before dosing [2],Diastolic blood pressure After dosing ([2]; end of week 12 of treatment),Systolic blood pressure After dosing ([2]; end of week 12 of treatment),further results
one,two,COC(=O)C1=C(C)NC(C)=C(C(=O)OC(C)(C)CN(C)CCC(c2ccccc2)c2ccccc2)C1c1cccc([N+](=O)[O-])c1 (stereo not shown) [lercanidipine hydrochloride],16 ± 6 mmHg,19 ± 7 mmHg,106 ± 8 mmHg,156 ± 8 mmHg,89 ± 7 mmHg,136 ± 7 mmHg,13 ± 8 mmHg,19 ± 3 mmHg,104 ± 9 mmHg,152 ± 9 mmHg,88 ± 7 mmHg,139 ± 8 mmHg,"cases of dizziness ([1]; 12 weeks of treatment): one; Effective rate (total effective rate for decreasing blood pressure) ([1]; end of week 12 of treatment, criteria of b91, hydrochloride): 71.6%; Effective rate (total effective rate for decreasing blood pressure) ([1]; end of week 12 of treatment; criteria of b91; listed as 2), hydrochloride): 71.6%; cases of dizziness ([2]; 12 weeks of treatment): one; Effective rate (total effective rate for decreasing blood pressure) ([2]; end of week 12 of treatment, criteria of b72, hydrochloride): 70.8%; Effective rate (total effective rate for decreasing blood pressure) ([2]; end of week 12 of treatment; criteria of b72; listed as 2), hydrochloride): 70.8%"
two,four,CCCCc1nc(Cl)c(CO)n1Cc1ccc(-c2ccccc2-c2nn[nH]n2)cc1 [losartan],14 ± 5 mmHg,17 ± 5 mmHg,102 ± 6 mmHg,152 ± 7 mmHg,83 ± 8 mmHg,139 ± 5 mmHg,11 ± 5 mmHg,15 ± 9 mmHg,100 ± 5 mmHg,152 ± 9 mmHg,81 ± 9 mmHg,138 ± 6 mmHg,"cases of dry mouth ([1]; 12 weeks of treatment): one; Effective rate (total effective rate for decreasing blood pressure) ([1]; end of week 12 of treatment; criteria of b91; listed as 3)): 77.3%; Effective rate (total effective rate for decreasing blood pressure) ([1]; end of week 12 of treatment, criteria of b91, listed as lorsartan): 77.3%; cases of dry mouth ([2]; 12 weeks of treatment): one; Effective rate (total effective rate for decreasing blood pressure) ([2]; end of week 12 of treatment; criteria of b72; listed as 3)): 75.1%; Effective rate (total effective rate for decreasing blood pressure) ([2]; end of week 12 of treatment, criteria of b72, listed as lorsartan): 75.1%"
